Our source for the mortality values is US8455649B2, “Insecticidal substituted azinyl derivatives” (Dow AgroSciences, LLC, priority 2007, dated 2013).

In experiment [1] the test system is Beet Armyworm (Spodoptera exigua). Description: Insecticidal diet-surface test for beet armyworm. The class given is in vivo. As to conditions: 120 h, read-out: LAPHEG AVG % Mortality (50 μg/cm^2). On the procedure:
(§1) The compounds identified in Table 1 were tested against beet armyworm and corn earworm as follows:
(§2) Insecticidal Test for Corn Earworm (Helicoverpa zea) and Beet Armyworm (Spodoptera exigua).
(§3) To prepare test solution, the test compound was formulated at 2000 ppm solution as 4 mg/2 mL of 9 acetone:1 tap water. 50 μL of the 2000 ppm (equivalent to 50 μg/cm^2 dose on diet surface area) test solution was pipetted upon the surface of 1 mL of lepidopteran diet (Southland Multi-Species Lepidopteran Diet) contained in each of eight wells per insect species (one well=1 replication). A second-instar corn earworm and beet armyworm was placed upon the treated diet in each well once the solvent had air-dried. Trays containing the treated diet and larvae were covered and then held in a growth chamber at 25° C., 50-55% RH, and 16 hr light:8 hr dark for 5 days. Observation were conducted 5 days after treatment and infestation. The number of dead insects of 8 per species per treatment was then determined and the results are given in Table 2 as a percent control at a dose of […].

Experiment [2] relates to Corn Earworm (Helicoverpa zea). Description: Insecticidal diet-surface test for corn earworm. Format: in vivo. The conditions noted are these: 120 h, read-out: HELIZE AVG % Mortality (50 μg/cm^2). The procedure: as §1, §2, §3
[3] abbreviates: second-instar larvae on treated diet, 50 μg/cm^2 on diet surface, 5 days after treatment, 8 insects per treatment.

Read-outs that look alike come from different tables or passages of the source.

Consider `CN(C(=O)Nc1nc(OCC(F)(F)F)cc(OCC(F)(F)F)n1)c1ccc(SC(F)(F)F)cc1` [Compound 80], for which the mortality at 50 µg/cm2 in experiment [1] (setting [3]) and in experiment [2] (setting [3]) was 100% throughout.
With `CN(C(=O)Nc1nc(OCC(F)(F)F)cc(OCC(F)(F)F)n1)c1ccc(I)cc1` [Compound 81], the mortality at 50 µg/cm2 in experiment [1] (setting [3]) and in experiment [2] (setting [3]) was 100% each time.
`COC(=O)c1ccc(N(C)C(=O)Nc2nc(OCC(F)(F)F)cc(OCC(F)(F)F)n2)cc1` [Compound 82]: the mortality at 50 µg/cm2 was 100% in experiment [1] (setting [3]) and 0% in experiment [2] (setting [3]).
Regarding `CN(C(=O)Nc1nc(OCC(F)(F)F)cc(OCC(F)(F)F)n1)c1ccc(C#N)cc1` [Compound 83], the mortality at 50 µg/cm2 in experiment [1] (setting [3]) and in experiment [2] (setting [3]) was 100% throughout.
Consider `CN(C(=O)Nc1nc(OCC(F)(F)F)cc(OCC(F)(F)F)n1)c1ccc(Br)c(Cl)c1` [Compound 84], for which the mortality at 50 µg/cm2 in experiment [1] (setting [3]) and in experiment [2] (setting [3]) was 100% throughout.
As for `CN(C(=O)Nc1nc(OCC(F)(F)F)cc(OCC(F)(F)F)n1)c1ccc(Cl)c(Cl)c1` [Compound 85], the mortality at 50 µg/cm2 in experiment [1] (setting [3]) and in experiment [2] (setting [3]) was 100% throughout.
As to `CN(C(=O)Nc1nc(OCC(F)(F)F)cc(OCC(F)(F)F)n1)c1ccc(F)cc1` [Compound 86], the mortality at 50 µg/cm2 in experiment [1] (setting [3]) and in experiment [2] (setting [3]) was 100% throughout.
Turning to `O=C(Nc1ccc(C(F)(F)F)nc1)N(COCc1ccccc1)c1nc(OCC(F)(F)F)cc(OCC(F)(F)F)n1` [Compound 87], the mortality at 50 µg/cm2 in experiment [1] (setting [3]) and in experiment [2] (setting [3]) was 100% throughout.
In the case of `CCOCN(C(=O)N(COCc1ccccc1)c1nc(OCC(F)(F)F)cc(OCC(F)(F)F)n1)c1ccc(C(F)(F)F)nc1` [Compound 88], the mortality at 50 µg/cm2 in experiment [1] (setting [3]) and in experiment [2] (setting [3]) was 100% in each case.
For the molecule `COCN(C(=O)N(COCc1ccccc1)c1nc(OCC(F)(F)F)cc(OCC(F)(F)F)n1)c1ccc(C(F)(F)F)nc1` [Compound 89], the mortality at 50 µg/cm2 in experiment [1] (setting [3]) and in experiment [2] (setting [3]) was 100% each time.
Take `CCOCN(C(=O)Nc1nc(OCC(F)(F)F)cc(OCC(F)(F)F)n1)c1ccc(C(F)(F)F)nc1` [Compound 90]: the mortality at 50 µg/cm2 in experiment [1] (setting [3]) and in experiment [2] (setting [3]) was 100% each time.
In the case of `COCN(C(=O)Nc1nc(OCC(F)(F)F)cc(OCC(F)(F)F)n1)c1ccc(C(F)(F)F)nc1` [Compound 91], the mortality at 50 µg/cm2 in experiment [1] (setting [3]) and in experiment [2] (setting [3]) was 100% each time.
For `CN(C(=O)Nc1nc(OCC(F)(F)F)cc(OCC(F)(F)F)n1)c1ccc(C#N)c(Cl)c1` [Compound 92], the mortality at 50 µg/cm2 in experiment [1] and in experiment [2] was 100% throughout.
Take `O=C(Nc1nc(OCC(F)(F)F)cc(OCC(F)(F)F)n1)N(c1ccc(OC(F)(F)F)cc1)C(F)(F)F` [Compound 93]: the mortality at 50 µg/cm2 in experiment [1] (setting [3]) and in experiment [2] (setting [3]) was 100% in each case.
Consider `CN(C(=O)Nc1nc(OCC(F)(F)F)cc(OCC(F)(F)F)n1)c1ccc(S(=O)(=O)C(F)(F)F)cc1` [Compound 94], for which the mortality at 50 µg/cm2 in experiment [1] (setting [3]) and in experiment [2] (setting [3]) was 100% in each case.
On to `O=C(Nc1nc(OCC(F)(F)F)cc(OCC(F)(F)F)n1)N(CCF)c1ccc(OC(F)(F)F)cc1` [Compound 95], for which the mortality at 50 µg/cm2 in experiment [1] (setting [3]) and in experiment [2] (setting [3]) was 100% throughout.
`[2H]C([2H])([2H])N(C(=O)Nc1nc(OCC(F)(F)F)cc(OCC(F)(F)F)n1)c1ccc(C(F)(F)F)cc1` [Compound 96]: the mortality at 50 µg/cm2 in experiment [1] (setting [3]) and in experiment [2] (setting [3]) was 100% throughout.
`O=C(Nc1ccc(C(F)(F)F)cc1)Nc1nc(Cl)cc(OCC(F)(F)F)n1` [Compound 97]: the mortality at 50 µg/cm2 in experiment [1] (setting [3]) and in experiment [2] (setting [3]) was 100% each time.
As for `CCNCCNc1cc(OCC(F)(F)F)nc(NC(=O)Nc2ccc(C(F)(F)F)cc2)n1` [Compound 98], the mortality at 50 µg/cm2 in experiment [1] (setting [3]) and in experiment [2] (setting [3]) was 100% each time.
For the molecule `O=C(Nc1ccc(C(F)(F)F)cc1)Nc1nc(NCC(F)(F)F)cc(OCC(F)(F)F)n1` [Compound 99], the mortality at 50 µg/cm2 in experiment [1] (setting [3]) and in experiment [2] (setting [3]) was 100% each time.
Regarding `CCOc1cc(OCC(F)(F)F)nc(NC(=O)Nc2ccc(C(F)(F)F)cc2)n1` [Compound 100], the mortality at 50 µg/cm2 in experiment [1] (setting [3]) and in experiment [2] (setting [3]) was 100% each time.
For `CC1(COc2cc(OCC(F)(F)F)nc(NC(=O)Nc3ccc(C(F)(F)F)cc3)n2)CC1(Cl)Cl` (stereo not drawn) [Compound 101], the mortality at 50 µg/cm2 in experiment [1] (setting [3]) and in experiment [2] (setting [3]) was 100% throughout.
As to `O=C(Nc1ccc(C(F)(F)F)cc1)Nc1nc(OCC(F)(F)F)cc(C(F)(F)F)n1` [Compound 102, N-(4-trifluoromethylphenyl)-N′-[4-trifluoromethyl-6-(2,2,2-trifluoroethoxy)pyrimidin-2-yl]urea], the mortality at 50 µg/cm2 came out at 0% in experiment [1] (setting [3]) and 100% in experiment [2] (setting [3]).
For `CCOc1cc(OCC(F)(F)F)nc(NC(=O)N(C)c2ccc(Br)cc2)n1` [Compound 103, N-(4-bromophenyl)-N′-[4-ethoxy-6-(2,2,2-trifluoroethoxy)-pyrimidin-2-yl]-N-methylurea], the mortality at 50 µg/cm2 in experiment [1] (setting [3]) came to 25%; in experiment [2] (setting [3]), 100%.
Regarding `O=C(Nc1ccc(OC(F)(F)F)cc1)Nc1nc(OCC(F)(F)C(F)(F)F)cc(OCC(F)(F)C(F)(F)F)n1` [Compound 104], the mortality at 50 µg/cm2 came to 0% in experiment [1] (setting [3]) and 100% in experiment [2] (setting [3]).
In the case of `O=C(Nc1ccc(C(F)(F)F)cc1)Nc1cc(OCC(F)(F)F)nc(OCC(F)(F)F)n1` [Compound 105], the mortality at 50 µg/cm2 in experiment [1] (setting [3]) was found to be 100%; in experiment [2] (setting [3]), 0%.
`CN(C(=O)Nc1cc(OCC(F)(F)F)nc(OCC(F)(F)F)n1)c1ccc(OC(F)(F)F)cc1` [Compound 106]: the mortality at 50 µg/cm2 in experiment [1] (setting [3]) and in experiment [2] (setting [3]) was 100% each time.
For `CN(C(=O)Nc1cc(OCC(F)(F)F)nc(OCC(F)(F)F)n1)c1ccc(C(F)(F)F)cc1` [Compound 107], the mortality at 50 µg/cm2 in experiment [1] (setting [3]) and in experiment [2] (setting [3]) was 100% throughout.
Turning to `CN(C(=O)Nc1cc(OCC(F)(F)F)nc(OCC(F)(F)F)n1)c1ccc(Br)cc1` [Compound 108], the mortality at 50 µg/cm2 in experiment [1] (setting [3]) and in experiment [2] (setting [3]) was 100% throughout.
In the case of `CN(C(=O)Nc1cc(OCC(F)(F)F)nc(OCC(F)(F)F)n1)c1ccc(Br)nc1` [Compound 109], the mortality at 50 µg/cm2 came to 88% in experiment [1] (setting [3]) and 25% in experiment [2] (setting [3]).
Take `CN(C(=O)Nc1cc(OCC(F)(F)F)nc(OCC(F)(F)F)n1)c1ccc(Cl)nc1` [Compound 110]: the mortality at 50 µg/cm2 is 100% in experiment [1] (setting [3]) and 0% in experiment [2] (setting [3]).
`CN(C(=O)Nc1cc(OCC(F)(F)F)nc(OCC(F)(F)F)n1)c1ccc([N+](=O)[O-])cc1` [Compound 111]: the results for the mortality at 50 µg/cm2 in experiment [1] (setting [3]) and in experiment [2] (setting [3]) were 100% and 88%, respectively.
Regarding `CN(C(=O)Nc1cc(OCC(F)(F)F)nc(OCC(F)(F)F)n1)c1ccc(Cl)cc1` [Compound 112], the mortality at 50 µg/cm2 in experiment [1] (setting [3]) worked out at 50%; in experiment [2] (setting [3]), 100%.
For `CN(C(=O)Nc1cc(OCC(F)(F)F)nc(OCC(F)(F)F)n1)c1ccc(C(F)(F)F)nc1` [Compound 113], the mortality at 50 µg/cm2 was determined as 100% in experiment [1] (setting [3]) and 0% in experiment [2] (setting [3]).
For `O=C(Nc1cc(OCC(F)(F)F)nc(OCC(F)(F)F)n1)N(CCF)c1ccc(OC(F)(F)F)cc1` [Compound 114], the mortality at 50 µg/cm2 in experiment [1] (setting [3]) and in experiment [2] (setting [3]) was 100% in each case.
For `O=C(Nc1ccc(OC(F)(F)F)cc1)Nc1cc(OCC(F)(F)F)nc(OCC(F)(F)F)n1` [Compound 115], the mortality at 50 µg/cm2 stood at 38% in experiment [1] (setting [3]) and 75% in experiment [2] (setting [3]).
With `O=C(Nc1ccc(C(F)(F)F)cc1)Nc1nc(OCC(F)(F)F)nc(OCC(F)(F)F)n1` [Compound 116], the results for the mortality at 50 µg/cm2 in experiment [1] (setting [3]) and in experiment [2] (setting [3]) were 100% and 0%, respectively.
Regarding `O=C(Nc1ccc(Br)cc1)Nc1nc(OCC(F)(F)F)nc(OCC(F)(F)F)n1` [Compound 117], the values for the mortality at 50 µg/cm2 in experiment [1] (setting [3]) and in experiment [2] (setting [3]) were 100% and 0%, respectively.
`CN(C(=O)Nc1nc(OCC(F)(F)F)nc(OCC(F)(F)F)n1)c1ccc(C(F)(F)F)cc1` [Compound 118, N′-[4,6-bis(2,2,2-trifluoroethoxy)-1,3,5-triazin-2-yl]-N-(4-trifluoromethylphenyl)-N-methylurea]: the mortality at 50 µg/cm2 in experiment [1] (setting [3]) and in experiment [2] (setting [3]) was 100% in each case.
Regarding `CN(C(=O)Nc1nc(OCC(F)(F)F)nc(OCC(F)(F)F)n1)c1ccc(Br)cc1` [Compound 119], the values for the mortality at 50 µg/cm2 in experiment [1] (setting [3]) and in experiment [2] (setting [3]) were 100% and 88%, respectively.
`CN(C(=O)Nc1nc(OCC(F)(F)F)nc(OCC(F)(F)F)n1)c1ccc(OC(F)(F)C(F)F)cc1` [Compound 120]: the mortality at 50 µg/cm2 in experiment [1] (setting [3]) and in experiment [2] (setting [3]) was 100% in each case.
For `CN(C(=O)Nc1nc(OCC(F)(F)F)nc(OCC(F)(F)F)n1)c1ccc(Cl)cc1` [Compound 121, N′-[4,6-bis(2,2,2-trifluoroethoxy)-1,3,5-triazin-2-yl]-N-(4-chlorophenyl)-N-methylurea], the mortality at 50 µg/cm2 in experiment [1] (setting [3]) and in experiment [2] (setting [3]) was 100% in each case.
